Results from patent publication US20090143279A1 (priority 2007, published 2009).
Where two headings read alike, the source gives them in different places.

Experiments:
nuOXPHOS transcripts = type: cell-based, mouse
mtOXPHOS transcripts = type: cell-based, mouse
reactive oxygen species = type: cell-based, mouse
[1] = test system: mitochondrial membrane potential; type: cell-based, mouse
OXPHOS gene expression = type: cell-based, mouse
cytochrome c = type: cell-based, mouse
[2] = test system: cellular dehydrogenase activity
[3] = composite Z-score vs DMSO wells, Conc 20 μM
[4] = Conc 20 μM, normalized score vs mock-treated (DMSO) wells
[5] = composite Z-score vs mock-treated (DMSO) wells, Conc 20 μM
[6] = normalized composite Z-score vs mock-treated (DMSO) wells, Conc 20 μM
[7] = composite Z-score vs DMSO, Conc 20 μM
[8] = 20 μM, composite Z-score vs DMSO

With `NCCS` [mercaptamine] the Viability (C2C12 myotubes) was −0.271, the nucOX (nuOXPHOS transcripts) was −0.980 and the mitoOX (mtOXPHOS transcripts) was −1.294. It also gave an ROS (reactive oxygen species) of −0.661, a ΔΨm [1] of −0.724 and a GE-HTS (OXPHOS gene expression) of −1.175. The cyt c (cytochrome c) was 0.320 and the MTT [2] was −0.085.

`Cc1cc(NC(=O)C2=C(O)c3ccccc3S(=O)(=O)N2C)no1` [isoxicam] gave a Viability (C2C12 myotubes; [3]) of 0.010, a nucOX (nuOXPHOS transcripts; [3]) of −0.221 and a mitoOX (mtOXPHOS transcripts; [3]) of −0.770. For the same compound, the ROS (reactive oxygen species; [3]) was 0.030, the ΔΨm [1, 3] was −1.091 and the GE-HTS (OXPHOS gene expression; [3]) was −0.423. It also gave a cyt c (cytochrome c) of 0.177, a cyt c (cytochrome c; [3]) of −0.169 and an MTT [2, 3] of −0.152.

With `CC(=O)Oc1cccc2c1C(=O)c1c(OC(C)=O)cc(C(=O)O)cc1C2=O` [diacerin] the “Viability (composite Z-score)” value (C2C12 myotubes; [4]) was −0.692, the “nucOX (composite Z-score)” value (nuOXPHOS transcripts; [4]) was −0.509 and the “mitoOX (composite Z-score)” value (mtOXPHOS transcripts; [4]) was −0.239. The “ROS (composite Z-score)” value (reactive oxygen species; [4]) was 0.228, the “ΔΨm (composite Z-score)” value [1, 4] was 0.195 and the “GE-HTS (composite Z-score)” value (OXPHOS gene expression; [4]) was −0.446. The “cyt c (composite Z-score)” value (cytochrome c; [4]) was 0.389 and the “MTT (composite Z-score)” value [2, 4] was −0.608.

`CCC(C)C(=O)OC1[C@@H]2CC3=C4CC(=O)O[C@@H](c5ccoc5)[C@]4(C)CCC3[C@@](C)(C2=O)[C@@H](CC(=O)OC)C1(C)C` (stereo partly drawn) [khayasin] was tested, and the Viability (C2C12 myotubes; [5]) was −0.077, the nucOX (nuOXPHOS transcripts; [5]) was 0.798 and the mitoOX (mtOXPHOS transcripts; [5]) was 0.326. It also gave an ROS (reactive oxygen species; [5]) of 0.528, a ΔΨm [1, 5] of 0.007 and a GE-HTS (OXPHOS gene expression; [5]) of 0.671. It also gave a cyt c (cytochrome c; [5]) of −0.281 and an MTT [2, 5] of −0.812.

`O=C(O)c1ccc(S(=O)(=O)N(Cl)Cl)cc1` [halazone] showed a Viability (C2C12 myotubes; [3]) of −0.242, a nucOX (nuOXPHOS transcripts; [3]) of 0.593 and a mitoOX (mtOXPHOS transcripts; [3]) of 0.385. It also gave an ROS (reactive oxygen species; [3]) of 0.779, a ΔΨm [1, 3] of −0.334 and a GE-HTS (OXPHOS gene expression; [3]) of 0.565. It also gave a cyt c (cytochrome c; [3]) of −0.942 and an MTT [2, 3] of −0.445.

`COc1ccc2c(=O)c(OC)c(-c3ccccc3)oc2c1` [3,7-dimethoxyflavone] gave a Viability (C2C12 myotubes; [6]) of −0.730, a nucOX (nuOXPHOS transcripts; [6]) of −1.084 and a mitoOX (mtOXPHOS transcripts; [6]) of −0.434. It also gave an ROS (reactive oxygen species; [6]) of 0.652, a ΔΨm [1, 6] of 0.817 and a GE-HTS (OXPHOS gene expression; [6]) of −0.945. It also gave a cyt c (cytochrome c; [6]) of 0.982 and an MTT [2, 6] of −1.089.

For `CC(=O)O[C@@H]1CC2C(C)(C)CCC[C@]2(C)C2CC[C@]3(C)C(=CC(=O)O[C@H]3c3ccoc3)[C@@]21C` (stereo partly drawn) [deoxodeoxydihydrogedunin], the Viability (C2C12 myotubes; [5]) was 0.876, the nucOX (nuOXPHOS transcripts; [5]) was −1.370 and the mitoOX (mtOXPHOS transcripts; [5]) was −1.397. The ROS (reactive oxygen species; [5]) was 0.995, the ΔΨm [1, 5] was 0.941 and the GE-HTS (OXPHOS gene expression; [5]) was −1.452. The cyt c (cytochrome c; [5]) was 0.837 and the MTT [2, 5] was −0.551.

Work on `CC(C)NCC(O)c1cc(O)cc(O)c1` (stereo not drawn) [metaproterenol] yielded a Viability (C2C12 myotubes; [3]) of 0.206, a nucOX (nuOXPHOS transcripts; [3]) of 0.138 and a mitoOX (mtOXPHOS transcripts; [3]) of −0.094. It also gave an ROS (reactive oxygen species; [3]) of 2.154, a ΔΨm [1, 3] of −1.005 and a GE-HTS (OXPHOS gene expression; [3]) of 0.086. It also gave a cyt c (cytochrome c) of 0.339, a cyt c (cytochrome c; [3]) of 0.212 and an MTT [2, 3] of −0.832.

In the case of `COc1ccc2c(=O)ccoc2c1` [7-methoxychromone], the Viability (C2C12 myotubes; [7]) is reported as −0.999, the nucOX (nuOXPHOS transcripts; [7]) is reported as −0.818 and the mitoOX (mtOXPHOS transcripts; [7]) is reported as −0.451. It also gave an ROS (reactive oxygen species; [7]) of 0.919, a ΔΨm [1, 7] of −0.875 and a GE-HTS (OXPHOS gene expression; [7]) of −0.759. For the same compound, the cyt c (cytochrome c; [7]) was 0.511 and the MTT [2, 7] was −0.963.

For `CC(=O)OCC(COC(C)=O)OC(C)=O` [triacetin], the Viability (C2C12 myotubes; [8]) was −0.842, the nucOX (nuOXPHOS transcripts; [8]) was −0.187 and the mitoOX (mtOXPHOS transcripts; [8]) was −0.569. It also gave an ROS (reactive oxygen species; [8]) of 0.431, a ΔΨm [1, 8] of −0.571 and a GE-HTS (OXPHOS gene expression; [8]) of −0.327. The cyt c (cytochrome c; [8]) was −0.264 and the MTT [2, 8] was −0.717.

Work on `CC(=O)OC1CCC2(C)C(CCC3C2CCC2(C)C3CC3OC4(CCC(C)CO4)C(C)C32)C1` (stereo not drawn) [neotigogenin acetate] yielded a Viability (C2C12 myotubes; [6]) of −0.705, a nucOX (nuOXPHOS transcripts; [6]) of −0.925 and a mitoOX (mtOXPHOS transcripts; [6]) of −0.693. It also gave an ROS (reactive oxygen species; [6]) of −0.437, a ΔΨm [1, 6] of −0.822 and a GE-HTS (OXPHOS gene expression; [6]) of −0.890. The cyt c (cytochrome c; [6]) was −0.049 and the MTT [2, 6] was −1.611.

`COC(=O)CC[C@@H](C)[C@H]1CC[C@H]2[C@@H]3[C@H](O)C[C@@H]4C[C@H](O)CC[C@]4(C)[C@H]3C[C@H](O)[C@]12C` [cholic acid, methyl ester] showed a Viability (C2C12 myotubes; [6]) of −0.383, a nucOX (nuOXPHOS transcripts; [6]) of −0.852 and a mitoOX (mtOXPHOS transcripts; [6]) of −0.394. The ROS (reactive oxygen species; [6]) was 0.295, the ΔΨm [1, 6] was 0.065 and the GE-HTS (OXPHOS gene expression; [6]) was −0.751. The cyt c (cytochrome c; [6]) was 0.018 and the MTT [2, 6] was −1.021.

Compound `O=C(O)c1cccnc1C(=O)O` [quinolinic acid] has a Viability (C2C12 myotubes; [8]) of −0.516, a nucOX (nuOXPHOS transcripts; [8]) of −0.575 and a mitoOX (mtOXPHOS transcripts; [8]) of −0.519. It also gave an ROS (reactive oxygen species; [8]) of 0.849, a ΔΨm [1, 8] of −1.023 and a GE-HTS (OXPHOS gene expression; [8]) of −0.586. It also gave a cyt c (cytochrome c; [8]) of −0.222 and an MTT [2, 8] of −1.118.

`CC(C)c1c(O)ccc2c1CCC1[C@@](C)(C=O)CCC[C@]21C` (stereo partly drawn) [totaralolal] showed a Viability (C2C12 myotubes; [5]) of 0.591, a nucOX (nuOXPHOS transcripts; [5]) of −0.401 and a mitoOX (mtOXPHOS transcripts; [5]) of −1.230. For the same compound, the ROS (reactive oxygen species; [5]) was 1.617, the ΔΨm [1, 5] was 0.460 and the GE-HTS (OXPHOS gene expression; [5]) was −0.700. For the same compound, the cyt c (cytochrome c; [5]) was −0.226 and the MTT [2, 5] was 1.526.
